Like-named read-outs stand apart in the source and are kept apart here.
Experiments:
[1] = molecular target: T1, BRD7 (Homo sapiens, UniProt Q9NPI1); assay: BRD7 HiBiT degradation assay in HEK293T.167 cells; type: cell-based
T1 construct: endogenously expressing BRD7 with HiBiT fusion tag via CRISPR; host or cells: HEK293T.167 (293T.167, BRD7-HiBiT HEK293, LgBiT by lentivirus)
T1 sequence (Q9NPI1 1-651): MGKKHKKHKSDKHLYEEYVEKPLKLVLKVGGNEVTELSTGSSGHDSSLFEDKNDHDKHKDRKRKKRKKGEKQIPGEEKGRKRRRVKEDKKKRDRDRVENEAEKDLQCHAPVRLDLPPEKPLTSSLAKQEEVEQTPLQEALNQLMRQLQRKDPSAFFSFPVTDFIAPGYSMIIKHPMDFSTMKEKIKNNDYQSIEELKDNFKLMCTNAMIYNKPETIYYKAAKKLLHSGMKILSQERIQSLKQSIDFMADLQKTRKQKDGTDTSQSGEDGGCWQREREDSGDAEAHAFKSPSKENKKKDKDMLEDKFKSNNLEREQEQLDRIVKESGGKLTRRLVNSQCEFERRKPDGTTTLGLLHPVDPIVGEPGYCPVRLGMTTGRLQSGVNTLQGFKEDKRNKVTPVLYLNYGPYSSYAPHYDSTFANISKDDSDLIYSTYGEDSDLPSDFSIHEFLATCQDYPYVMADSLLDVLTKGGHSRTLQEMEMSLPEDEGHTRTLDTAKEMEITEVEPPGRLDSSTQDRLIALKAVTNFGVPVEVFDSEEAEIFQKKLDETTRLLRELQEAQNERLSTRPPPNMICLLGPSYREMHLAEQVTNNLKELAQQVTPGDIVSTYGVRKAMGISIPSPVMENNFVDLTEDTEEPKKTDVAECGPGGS

[2] = molecular target: T2, GSPT1 (Homo sapiens, UniProt P15170+Q96SW2); assay: GSPT1 HiBiT degradation assay in HEK293T.114 cells; type: cell-based; settings: 6 hours
T2 construct: CRISPR-edited to endogenously express HiBiT tagged GSPT1; host or cells: HEK293T.114
Source text: This assay evaluated the off-target degradation of the cereblon neosubstrate, Eukaryotic peptide chain release factor GTP-binding subunit ERF3A (GSPT1), induced by treatment with Compound 1 as measured by luminescence using Nano-Glo HiBiT® Lytic Assay System in 293T cells CRISPR-edited to endogenously express HiBiT tagged GSPT1.
Nano-Glo® HiBiT Lytic Assay System was purchased from Promega (Catalog No. N3050, Madison, WI, USA). HEK293T cells were obtained from ATCC (Catalog No. CRL-3216, Manassas, VA, USA), and maintained in DMEM medium (Catalog No. 11995065, ThermoFischer Scientific, Waltham, MA, USA) supplemented with 10% heat inactivated FBS (Catalog No. 16000-044, Gibco, Grand Island, NY, USA) at 37° C. in an atmosphere of 5% CO2 in air. The HiBiT polypeptide tag was introduced into the N-terminus of the endogenous GSPT1 locus by CRISPR-Cas9 to produce the HEK293T.114 modified cell line. The HiBiT polypeptide allows reconstitution of NanoBiT enzyme following cell lysis and addition of the complementing LgBiT polypeptide that activates substrate to produce a luminescent signal that is directly proportional to the amount of HiBiT-tagged GSPT1.
HEK293T.114 cells were routinely sub-cultured to maintain cell density between 30-80% confluence, not to exceed 20 passages. Cells were washed with PBS, trypsinized for 5 minutes at 37° C., and resuspended in fresh growth media without phenol red. An aliquot was diluted 2× with Trypan Blue solution 0.4% (Catalog No. 15250061, ThermoFisher Scientific, Waltham, MA, USA) and cell count determined. Cell concentration was adjusted with growth media without phenol red to 2×10^5 cells/mL.
The 10 mM DMSO stock solutions of Compound 1 or CC0885 were serially diluted (half log) in DMSO to generate 11-point dose series (10000, 3160, 1000, 316, 100, 31.6, 10, 3.2, 1, 0.32, 0.1 μM) in an acoustic ready 384-well low dead volume microplate (Catalog No. LP-0200, Beckman Coulter Life Sciences, Indianapolis, IN, USA). Using an Echo 550 Acoustic Liquid Handler (Beckman Coulter Life Sciences, Indianapolis, IN, USA), 30 nL of serially diluted compound solutions were dispensed in duplicate to each 384-well black TC-treated microplate (Catalog No. 3571, Corning, Glendale, CA, USA). 30 nL DMSO was transferred to all control wells.
30 μL of HEK293T.114 cells suspended in growth media without phenol red at 2×10^5 cells/mL (6000 cells/well) were dispensed using a Multidrop Combi Reagent Dispenser (Catalog No. 5840300, ThermoFisher Scientific, Waltham, MA, USA) to each well of columns 1-23 of 384-well black TC-treated microplates containing duplicate concentration range of test compounds and DMSO controls. 30 μL of media was dispensed to column 24 as background positive control (P). Plates were spun briefly at 1000 rpm and cells were incubated at 37° C., 5% CO2 for 6 hours. Final concentration of DMSO was 0.1% for all samples.
Cellular GSPT1 protein level was determined based on quantification of HiBiT using Nano-Glo® HiBiT Lytic Assay System (Promega). 30 μL Nano-Glo Lytic Assay reagents were added to each well of columns 1-23 and luminescence was acquired on EnVision® Multilabel Reader (Catalog No. 2104-0010, Perkin Elmer Inc., Dumfries, VA, USA). Column 24 (cells without Nano-Glo reagent addition) was used as plate background or positive control (P). Cells treated in the absence of the test compound (0.1% DMSO vehicle) were the negative control (N)/
Percent response of compound-treated samples (T) were calculated by normalizing to the DMSO treated negative (N) controls on the same microtiter plate after background (i.e., positive control) signal subtraction:
Curve fit and DC50 (concentration that degrades 50% GSPT1) determination was performed by 4 parametric logistic fit analysis using software such as GraphPad Prism software (GraphPad Software, LLC, San Diego, CA, USA). […]

T2 sequence (P15170 whole entry): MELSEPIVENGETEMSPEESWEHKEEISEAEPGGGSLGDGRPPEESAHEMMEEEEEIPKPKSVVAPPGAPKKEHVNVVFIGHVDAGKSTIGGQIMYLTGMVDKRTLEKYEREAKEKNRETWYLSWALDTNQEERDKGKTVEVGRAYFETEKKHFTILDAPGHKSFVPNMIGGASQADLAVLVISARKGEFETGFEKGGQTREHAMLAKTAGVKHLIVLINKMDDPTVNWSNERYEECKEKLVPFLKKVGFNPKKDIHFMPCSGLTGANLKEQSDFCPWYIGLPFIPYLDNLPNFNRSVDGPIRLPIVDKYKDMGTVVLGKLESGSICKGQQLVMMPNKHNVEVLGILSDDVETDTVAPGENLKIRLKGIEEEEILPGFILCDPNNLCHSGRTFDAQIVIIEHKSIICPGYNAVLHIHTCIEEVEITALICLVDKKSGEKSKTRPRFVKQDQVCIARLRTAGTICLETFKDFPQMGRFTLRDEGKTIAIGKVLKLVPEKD
T2 sequence (Q96SW2 whole entry): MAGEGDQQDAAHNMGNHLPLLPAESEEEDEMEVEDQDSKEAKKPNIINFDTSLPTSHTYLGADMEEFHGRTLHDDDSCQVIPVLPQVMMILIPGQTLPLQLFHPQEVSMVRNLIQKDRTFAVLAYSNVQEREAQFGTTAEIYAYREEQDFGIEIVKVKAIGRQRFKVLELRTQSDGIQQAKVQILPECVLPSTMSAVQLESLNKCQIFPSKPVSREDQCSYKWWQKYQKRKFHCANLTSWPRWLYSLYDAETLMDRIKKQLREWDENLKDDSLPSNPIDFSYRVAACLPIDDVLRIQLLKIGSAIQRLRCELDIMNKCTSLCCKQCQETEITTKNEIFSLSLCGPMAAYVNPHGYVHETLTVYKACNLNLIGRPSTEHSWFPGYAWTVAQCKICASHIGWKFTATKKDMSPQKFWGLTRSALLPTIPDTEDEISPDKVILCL
T2 sequence (Q16531 2-1140 partner limits assumed): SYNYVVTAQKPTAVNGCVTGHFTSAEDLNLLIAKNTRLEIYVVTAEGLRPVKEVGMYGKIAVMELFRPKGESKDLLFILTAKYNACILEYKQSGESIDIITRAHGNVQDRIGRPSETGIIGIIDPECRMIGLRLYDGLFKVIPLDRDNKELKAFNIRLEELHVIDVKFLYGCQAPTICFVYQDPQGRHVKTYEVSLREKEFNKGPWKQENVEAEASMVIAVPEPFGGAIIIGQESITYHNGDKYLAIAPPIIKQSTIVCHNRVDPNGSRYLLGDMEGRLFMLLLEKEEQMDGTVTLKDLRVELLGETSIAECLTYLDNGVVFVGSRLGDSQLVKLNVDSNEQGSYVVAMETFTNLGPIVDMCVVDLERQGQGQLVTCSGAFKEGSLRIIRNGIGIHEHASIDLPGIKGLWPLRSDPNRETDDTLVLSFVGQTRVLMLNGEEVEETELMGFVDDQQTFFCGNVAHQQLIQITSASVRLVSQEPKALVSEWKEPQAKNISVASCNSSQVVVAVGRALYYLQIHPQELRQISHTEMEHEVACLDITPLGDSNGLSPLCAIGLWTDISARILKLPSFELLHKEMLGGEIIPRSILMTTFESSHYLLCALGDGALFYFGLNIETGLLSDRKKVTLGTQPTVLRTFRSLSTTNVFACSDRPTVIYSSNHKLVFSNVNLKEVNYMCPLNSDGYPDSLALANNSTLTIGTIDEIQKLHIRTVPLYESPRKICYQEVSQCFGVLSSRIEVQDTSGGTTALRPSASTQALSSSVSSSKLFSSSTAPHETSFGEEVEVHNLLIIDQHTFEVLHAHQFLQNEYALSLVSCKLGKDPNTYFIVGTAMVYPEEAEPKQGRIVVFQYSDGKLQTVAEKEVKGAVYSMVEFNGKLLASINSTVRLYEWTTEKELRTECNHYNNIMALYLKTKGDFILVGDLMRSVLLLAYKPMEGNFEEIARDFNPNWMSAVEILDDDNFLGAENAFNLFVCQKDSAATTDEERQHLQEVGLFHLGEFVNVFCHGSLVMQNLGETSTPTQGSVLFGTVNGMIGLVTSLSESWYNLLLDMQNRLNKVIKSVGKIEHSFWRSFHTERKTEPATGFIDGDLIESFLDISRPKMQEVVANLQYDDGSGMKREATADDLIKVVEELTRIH

With COc1cc(-c2cn(C)c(=O)c(C)c2C)cc(OC)c1CN1CC[C@H](N2CCN(c3ccc(N[C@H]4CCC(=O)NC4=O)cc3F)CC2)C(F)(F)C1 [Compound 1, (S)-3-((4-(4-((S)-1-(2,6-dimethoxy-4-(1,4,5-trimethyl-6-oxo-1,6-dihydropyridin-3-yl)benzyl)-3,3-difluoropiperidin-4-yl)piperazin-1-yl)-3-fluorophenyl)amino)-piperidine-2,6-dione] the “% BRD7 Remaining Relative to Vehicle Control at 24 hr, Mean” value ([1]; 0.101 nM) was 99.8%, the “% BRD7 Remaining Relative to Vehicle Control at 24 hr, Mean” value ([1]; 0.318 nM) was 101.3% and the “% BRD7 Remaining Relative to Vehicle Control at 24 hr, Mean” value ([1]; 1.01 nM) was 101.0%. For the same compound, the “% BRD7 Remaining Relative to Vehicle Control at 24 hr, Mean” value ([1]; 3.17 nM) was 99.8%, the “% BRD7 Remaining Relative to Vehicle Control at 24 hr, Mean” value ([1]; 10.0 nM) was 102.4% and the “% BRD7 Remaining Relative to Vehicle Control at 24 hr, Mean” value ([1]; 31.7 nM) was 103.4%. For the same compound, the “% BRD7 Remaining Relative to Vehicle Control at 24 hr, Mean” value ([1]; 100 nM) was 101.0%, the “% BRD7 Remaining Relative to Vehicle Control at 24 hr, Mean” value ([1]; 317 nM) was 102.3% and the “% BRD7 Remaining Relative to Vehicle Control at 24 hr, Mean” value ([1]; 1000 nM) was 106.3%. The “% BRD7 Remaining Relative to Vehicle Control at 24 hr, Mean” value ([1]; 3161 nM) was 117.4%, the “% BRD7 Remaining Relative to Vehicle Control at 24 hr, Mean” value ([1]; 9990 nM) was 143.3% and the DC50 ([1]; BRD7-HiBiT, 293T.167 cells, 24 hours, read-out: Mean DC50) was > 10 µM. For the same compound, the Emax ([1]; BRD7-HiBiT, 293T.167 cells, 24 hours, read-out: Mean Emax (%) ± SD) was 97.6 ± 6.41%, the “effect on the degradation of BRD7” value ([1]; concentrations up to 10 μM, 24 hours) was “no significant effect” and the DC50 ([1]; summary statement, read-out: DC50 against BRD7) was > 1 µM. The “% GSPT1 Remaining, Mean” value ([2]; 0.100 nM) was 97.4%, the “% GSPT1 Remaining, Mean” value ([2]; 0.316 nM) was 86.7% and the “% GSPT1 Remaining, Mean” value ([2]; 1.00 nM) was 70.8%. The “% GSPT1 Remaining, Mean” value ([2]; 3.15 nM) was 34.4%, the “% GSPT1 Remaining, Mean” value ([2]; 10.0 nM) was 12.4% and the “% GSPT1 Remaining, Mean” value ([2]; 31.5 nM) was 6.0%. For the same compound, the “% GSPT1 Remaining, Mean” value ([2]; 100 nM) was 4.0%, the “% GSPT1 Remaining, Mean” value ([2]; 317 nM) was 3.5% and the “% GSPT1 Remaining, Mean” value ([2]; 1000 nM) was 3.2%. The “% GSPT1 Remaining, Mean” value ([2]; 3161 nM) was 3.0%, the “% GSPT1 Remaining, Mean” value ([2]; 9990 nM) was 3.8% and the DC50 ([2]; GSPT1-HiBiT, HEK293T.114 cells, read-out: Geometric Mean DC50) was > 10 µM. For the same compound, the Emax ([2]; GSPT1-HiBiT, HEK293T.114 cells, read-out: Mean Emax (%) ± SD) was 93.9 ± 5.85% and the “effect on degradation of GSPT1” value ([2]; concentrations up to 10 μM) was “no significant effect”.
